Measurements published in patent US20130012432A1, “Peptides for Treatment of Obesity” (Novo Nordisk A/S, priority 2010, published 2013).
pKi: −log10 of the molar value. In brackets after ≈: the same amount, converted by molar mass. Positions of bridges follow the written chain, without caps; N, C: chain ends. Non-standard residues stand in square brackets, D forms with d. Residues, ends and D or L forms follow the SMILES beside them. Groups on a side chain read outwards from the residue. *: point of attachment. Palmitoyl(16-(5-tetrazolyl)) = O=C(CCCCCCCCCCCCCCCc1nnn[nH]1)*; Lys(CH2CO2H)2 = N[C@@H](CCCCN(CC(=O)O)CC(=O)O)C(=O)O; C17 diacid = O=C(O)CCCCCCCCCCCCCCCC(=O)*; C16 diacid = O=C(O)CCCCCCCCCCCCCCC(=O)*; Hyp = O=C(O)[C@@H]1C[C@@H](O)CN1; hCys = N[C@@H](CCS)C(=O)O; Orn = NCCC[C@H](N)C(=O)O; Dab = NCC[C@H](N)C(=O)O; AEEA = NCCOCCOCC(=O)O

Experiments:
MC1 receptor = MC1 receptor (Homo sapiens, UniProt Q01726); assay: biochemical
Description: Assay (IV)—Melanocortin Receptor 1 (MC1) Binding Assay
The MC1 receptor binding assay was performed on BHK cell membranes stably expressing the MC1 receptor. The assay was performed in a total volume of 250 μl: 25 μl of ^125NDP-α-MSH (22 pM in final concentration), 25 μl of test compound/control and 200 μl of cell membrane (25 μg/ml). Test compounds were dissolved in DMSO. Radioactively labeled ligand, membranes and test compounds were diluted in buffer: 25 mM HEPES, pH 7.4, 0.1 mM CaCl2, 1 mM MgSO4, 1 mM EDTA, 0.1% HSA and 0.005% Tween™ 20. Alternatively, HSA may be substituted with ovalbumin. The samples were incubated at 30° C. for 90 min. in Costar round-bottom microtiter plates. Incubation was terminated by filtration on a Packard harvester filtermate. Rapid filtration through Packard Unifilter-96 GF/B filters pre-treated with polyetylenimine (PerkinElmer 6005277). The filters were washed with ice-cold 0.9% NaCl 8-10 times. The plates were air-dried at app. 55° C. for 30 min, and 50 μl Microscint 0 (Packard, cat. No. 6013616) was added to each well. The plates were counted in a Topcounter (1 min/well).
The data were analysed by non-linear regression analysis of binding curves, using the Windows™ program GraphPad™ Prism (GraphPad Software, USA).

physchem = assay: physchem
Description: From a stock solution in vehicle, either H2O or 10 mM phosphate, containing 1 mg (as weighed) compound per ml, 8-11 aliquots are withdrawn and pH-adjusted individually with HCl/NaOH, to cover the whole pH range.

MC1 receptor, sequence (Q01726 whole entry): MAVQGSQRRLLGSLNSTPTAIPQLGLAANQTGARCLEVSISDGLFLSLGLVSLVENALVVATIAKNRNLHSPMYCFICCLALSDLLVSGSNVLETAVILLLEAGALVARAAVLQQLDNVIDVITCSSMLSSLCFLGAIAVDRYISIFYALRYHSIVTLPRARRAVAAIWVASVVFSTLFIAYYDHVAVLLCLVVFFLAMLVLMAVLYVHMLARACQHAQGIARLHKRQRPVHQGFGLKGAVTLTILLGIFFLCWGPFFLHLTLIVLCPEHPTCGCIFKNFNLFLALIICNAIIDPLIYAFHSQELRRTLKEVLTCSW

SMILES	pKi (MC1 receptor)	solubility (physchem; pH 7.5, Solubility Conc.) [µM]	solubility (physchem; pH 7.8, Solubility Conc.) [µM]	solubility (physchem; pH 8, Solubility Conc.) [µM]	solubility (physchem; pH 6.4, Solubility Conc.) [µM]	solubility (physchem; pH 7, Solubility Conc.) [µM]	solubility (physchem; pH 7.2, Solubility Conc.) [µM]	solubility (physchem; pH 7.3, Solubility Conc.) [µM]	solubility (physchem; pH 7.6, Solubility Conc.) [µM]	solubility (physchem; pH 6.6, Solubility Conc.) [µM]	solubility (physchem; pH 6.9, Solubility Conc.) [µM]	solubility (physchem; pH 7.4, Solubility Conc.) [µM]	solubility (physchem; pH 8.1, Solubility Conc.) [µM]	solubility (physchem; pH 6.7, Solubility Conc.) [µM]	also measured
CC(=O)N[C@H]1CCSSC[C@@H](C(=O)N2CCC[C@H]2C(=O)N2CCC[C@H]2C(=O)N[C@@H](CO)C(=O)N[C@@H](CCC(=O)O)C(=O)N[C@@H](CCCCN(CC(=O)O)CC(=O)O)C(=O)N[C@@H](CCCCNC(=O)COCCOCCNC(=O)CCCCCCCCCCCCCCC(=O)O)C(N)=O)NC(=O)[C@H](Cc2c[nH]c3ccccc23)NC(=O)[C@H](CCCNC(=N)N)NC(=O)[C@@H](Cc2ccccc2)NC(=O)[C@H](Cc2c[nH]cn2)NC1=O [Example 70, Ac-c[homoCys-His-D-Phe-Arg-Trp-Cys]-Pro-Pro-Ser-Glu-Lys(biscarboxymethyl)-Lys({2-[2-(15-carboxypentadecanoylamino)ethoxy]ethoxy}acetyl)-NH2] (Ac-[hCys]H[dF]RWCPPSE[Lys(CH2CO2H)2]K([AEEA-C16 diacid])-NH2; disulfide 1-6)	< 5.00	444 (≈ 933 µg/mL)	463 (≈ 973 µg/mL)	440 (≈ 924 µg/mL)	–	–	–	–	–	–	–	–	–	–	solubility (physchem; pH 3.4, Solubility Conc.): 190 µM (≈ 399 µg/mL); solubility (physchem; pH 3.9, Solubility Conc.): 65 µM (≈ 137 µg/mL); solubility (physchem; pH 4.4, Solubility Conc.): 40 µM (≈ 84 µg/mL); solubility (physchem; pH 5.5, Solubility Conc.): 59 µM (≈ 124 µg/mL); solubility (physchem; pH 5.6, Solubility Conc.): 142 µM (≈ 298 µg/mL); solubility (physchem; pH 5.8, Solubility Conc.): 210 µM (≈ 441 µg/mL); solubility (physchem; pH 6.1, Solubility Conc.): 429 µM (≈ 901 µg/mL)
CC(=O)N[C@H]1CCCCNC(=O)C[C@@H](C(=O)N2CCC[C@H]2C(=O)N2CCC[C@H]2C(=O)N[C@@H](CCCNC(=N)N)C(=O)N[C@@H](CC(=O)O)C(=O)N[C@@H](CCCCN(CC(=O)O)CC(=O)O)C(=O)N[C@@H](CCCCNC(=O)COCCOCCNC(=O)CCCCCCCCCCCCCCCc2nnn[nH]2)C(N)=O)NC(=O)[C@H](Cc2c[nH]c3ccccc23)NC(=O)[C@H](CCCNC(=N)N)NC(=O)[C@@H](Cc2ccccc2)NC(=O)[C@H](Cc2c[nH]cn2)NC1=O [Example 11, Ac-c[Lys-His-D-Phe-Arg-Trp-Asp]-Pro-Pro-Arg-Asp-Lys(biscarboxymethyl)-Lys[(2-{2-[16-(tetrazol-5-yl)hexadecanoylamino]ethoxy}ethoxy)acetyl]-NH2] (Ac-KH[dF]RWDPPRD[Lys(CH2CO2H)2]K([AEEA-Palmitoyl(16-(5-tetrazolyl))])-NH2; lactam 1-6)	< 5.00	–	479 (≈ 1050 µg/mL)	–	36 (≈ 79.2 µg/mL)	147 (≈ 323 µg/mL)	364 (≈ 801 µg/mL)	479 (≈ 1050 µg/mL)	472 (≈ 1040 µg/mL)	–	–	–	–	–	solubility (physchem; pH 4.8, Solubility Conc.): 51 µM (≈ 112 µg/mL); solubility (physchem; pH 5.3, Solubility Conc.): 29 µM (≈ 63.8 µg/mL); solubility (physchem; pH 6, Solubility Conc.): 25 µM (≈ 55 µg/mL)
CC(=O)N[C@H]1CCC(=O)NCCCC[C@@H](C(=O)N2CCC[C@H]2C(=O)N2CCC[C@H]2C(=O)N[C@@H](CCCNC(=N)N)C(=O)N[C@@H](CC(=O)O)C(=O)N[C@@H](CCCCN(CC(=O)O)CC(=O)O)C(=O)N[C@@H](CCCCNC(=O)COCCOCCNC(=O)CCCCCCCCCCCCCCCc2nnn[nH]2)C(N)=O)NC(=O)[C@H](Cc2c[nH]c3ccccc23)NC(=O)[C@H](CCCNC(=N)N)NC(=O)[C@@H](Cc2ccccc2)NC(=O)[C@H](Cc2c[nH]cn2)NC1=O [Example 27, Ac-c[Glu-His-D-Phe-Arg-Trp-Lys]-Pro-Pro-Arg-Asp-Lys(biscarboxymethyl)-Lys[(2-{2-[16-(tetrazol-5-yl)hexadecanoylamino]ethoxy}ethoxy)acetyl]-NH2] (Ac-EH[dF]RWKPPRD[Lys(CH2CO2H)2]K([AEEA-Palmitoyl(16-(5-tetrazolyl))])-NH2; lactam 1-6)	< 5.00	474 (≈ 1050 µg/mL)	481 (≈ 1070 µg/mL)	–	–	–	263 (≈ 582 µg/mL)	394 (≈ 873 µg/mL)	521 (≈ 1150 µg/mL)	42 (≈ 93 µg/mL)	65 (≈ 144 µg/mL)	459 (≈ 1020 µg/mL)	435 (≈ 963 µg/mL)	–	–
CC(=O)N[C@H]1CCC(=O)NCC[C@@H](C(=O)N2C[C@H](O)C[C@H]2C(=O)N2C[C@H](O)C[C@H]2C(=O)N[C@@H](CCCNC(=N)N)C(=O)N[C@@H](CC(=O)O)C(=O)N[C@@H](CCCCN(CC(=O)O)CC(=O)O)C(=O)N[C@@H](CCCCNC(=O)COCCOCCNC(=O)CCCCCCCCCCCCCCCc2nnn[nH]2)C(N)=O)NC(=O)[C@H](Cc2c[nH]c3ccccc23)NC(=O)[C@H](CCCNC(=N)N)NC(=O)[C@@H](Cc2ccccc2)NC(=O)[C@H](Cc2c[nH]cn2)NC1=O [Example 32, Ac-c[Glu-His-D-Phe-Arg-Trp-Dab]-Hyp-Hyp-Arg-Asp-Lys(biscarboxymethyl)-Lys[(2-{2-[16-(tetrazol-5-yl)hexadecanoylamino]ethoxy}ethoxy)acetyl]-NH2] (Ac-EH[dF]RW[Dab][Hyp][Hyp]RD[Lys(CH2CO2H)2]K([AEEA-Palmitoyl(16-(5-tetrazolyl))])-NH2; lactam 1-6)	< 5.00	258 (≈ 572 µg/mL)	640 (≈ 1420 µg/mL)	–	–	60 (≈ 133 µg/mL)	89 (≈ 197 µg/mL)	–	324 (≈ 719 µg/mL)	–	–	–	230 (≈ 510 µg/mL)	40 (≈ 88.7 µg/mL)	solubility (physchem; pH 7.9, Solubility Conc.): 674 µM (≈ 1500 µg/mL)
CC(=O)N[C@H]1CCCNC(=O)CC[C@@H](C(=O)N2CCC[C@H]2C(=O)N2CCC[C@H]2C(=O)N[C@@H](Cc2c[nH]cn2)C(=O)N[C@@H](CCC(=O)O)C(=O)N[C@@H](CCCCN(CC(=O)O)CC(=O)O)C(=O)N[C@@H](CCCCNC(=O)COCCOCCNC(=O)CCCCCCCCCCCCCCCC(=O)O)C(N)=O)NC(=O)[C@H](Cc2c[nH]c3ccccc23)NC(=O)[C@H](CCCNC(=N)N)NC(=O)[C@@H](Cc2ccccc2)NC(=O)[C@H](Cc2c[nH]cn2)NC1=O [Example 22, Ac-c[Orn-His-D-Phe-Arg-Trp-Glu]-Pro-Pro-His-Glu-Lys(biscarboxymethyl)-Lys({2-[2-(16-carboxyhexadecanoylamino)ethoxy]ethoxy}acetyl)-NH2] (Ac-[Orn]H[dF]RWEPPHE[Lys(CH2CO2H)2]K([AEEA-C17 diacid])-NH2; lactam 1-6)	< 5.00	–	–	468 (≈ 1020 µg/mL)	–	–	447 (≈ 971 µg/mL)	–	–	–	443 (≈ 962 µg/mL)	438 (≈ 951 µg/mL)	–	284 (≈ 617 µg/mL)	solubility (physchem; pH 6.1, Solubility Conc.): 134 µM (≈ 291 µg/mL); solubility (physchem; pH 6.3, Solubility Conc.): 173 µM (≈ 376 µg/mL); solubility (physchem; pH 6.8, Solubility Conc.): 444 µM (≈ 964 µg/mL)
CC(=O)N[C@H]1CCCNC(=O)C[C@@H](C(=O)N2CCC[C@H]2C(=O)N2CCC[C@H]2C(=O)N[C@@H](Cc2c[nH]cn2)C(=O)N[C@@H](CCC(=O)O)C(=O)N[C@@H](CCCCN(CC(=O)O)CC(=O)O)C(=O)N[C@@H](CCCCNC(=O)COCCOCCNC(=O)CCCCCCCCCCCCCCCc2nnn[nH]2)C(N)=O)NC(=O)[C@H](Cc2c[nH]c3ccccc23)NC(=O)[C@H](CCCNC(=N)N)NC(=O)[C@@H](Cc2ccccc2)NC(=O)[C@H](Cc2c[nH]cn2)NC1=O [Example 10, Ac-c[Orn-His-D-Phe-Arg-Trp-Asp]-Pro-Pro-His-Glu-Lys(biscarboxymethyl)-Lys[(2-{2-[16-(tetrazol-5-yl)hexadecanoylamino]ethoxy}ethoxy)acetyl]-NH2] (Ac-[Orn]H[dF]RWDPPHE[Lys(CH2CO2H)2]K([AEEA-Palmitoyl(16-(5-tetrazolyl))])-NH2; lactam 1-6)	< 5.00	–	–	531 (≈ 1160 µg/mL)	88 (≈ 192 µg/mL)	517 (≈ 1130 µg/mL)	–	517 (≈ 1130 µg/mL)	–	287 (≈ 626 µg/mL)	–	516 (≈ 1130 µg/mL)	–	514 (≈ 1120 µg/mL)	solubility (physchem; pH 6, Solubility Conc.): 35 µM (≈ 76.4 µg/mL); solubility (physchem; pH 7.7, Solubility Conc.): 521 µM (≈ 1140 µg/mL)
CC(=O)N[C@H]1CCNC(=O)C[C@@H](C(=O)N2CCC[C@H]2C(=O)N2CCC[C@H]2C(=O)N[C@@H](Cc2c[nH]cn2)C(=O)N[C@@H](CCC(=O)O)C(=O)N[C@@H](CCCCN(CC(=O)O)CC(=O)O)C(=O)N[C@@H](CCCCNC(=O)COCCOCCNC(=O)CCCCCCCCCCCCCCCc2nnn[nH]2)C(N)=O)NC(=O)[C@H](Cc2c[nH]c3ccccc23)NC(=O)[C@H](CCCNC(=N)N)NC(=O)[C@@H](Cc2ccccc2)NC(=O)[C@H](Cc2c[nH]cn2)NC1=O [Example 33, Ac-c[Dab-His-D-Phe-Arg-Trp-Asp]-Pro-Pro-His-Glu-Lys(biscarboxymethyl)-Lys[(2-{2-[16-(tetrazol-5-yl)hexadecanoylamino]ethoxy}ethoxy)acetyl]-NH2] (Ac-[Dab]H[dF]RWDPPHE[Lys(CH2CO2H)2]K([AEEA-Palmitoyl(16-(5-tetrazolyl))])-NH2; lactam 1-6)	< 5.00	503 (≈ 1090 µg/mL)	489 (≈ 1060 µg/mL)	–	122 (≈ 264 µg/mL)	–	–	488 (≈ 1060 µg/mL)	–	468 (≈ 1010 µg/mL)	487 (≈ 1060 µg/mL)	–	511 (≈ 1110 µg/mL)	485 (≈ 1050 µg/mL)	solubility (physchem; pH 8.6, Solubility Conc.): 473 µM (≈ 1030 µg/mL)
